Assay [1] deals with Phosphatidylinositol 4-kinase alpha (Homo sapiens, UniProt P42356). Description: Inhibition of GST-tagged PI4K-alpha (1 to 2044) (unknown origin) using D-myo-phosphatidylinositol as substrate preincubated for 30 mins followed by substrate addition measured after 180 mins by luminescence assay.
For assay [2], the system named is Hepatitis C virus. The assay is described as follows: Antiviral activity against Hepatitis C virus genotype 1b expressed in ET cells after 48 hrs by luciferase reporter gene assay. Particulars: for IC50: Hepatitis C virus, genotype 1b, ET, 48 h. Type of assay: functional, organism-based, Hepacivirus hominis. (In general: A reporter such as luciferase makes a cellular process visible.)

Assay [3] in a line: Inhibition of 6xHis-tagged PI4K-beta (13 to 828) 316 to 330 deletion mutant (unknown origin) using D-myo-phosphatidylinositol as substrate preincubated for 30 mins followed by substrate addition measured after 180 mins by luminescence assay. The arrangement: species or system Homo sapiens.
For assay [4], the target named is Phosphatidylinositol 4,5-bisphosphate 3-kinase catalytic subunit gamma isoform (Homo sapiens, UniProt P48736).
Description: Inhibition of PI3Kgamma (2 to 1102) (unknown origin) using diC8-PIP2 as substrate preincubated for 30 mins followed by substrate addition measured after 45 to 60 mins
The nature of assay [5]: Inhibition of PI3Kalpha (1 to 1068)/6xHis-tagged p85 (1 to 724) (unknown origin) using diC8-PIP2 as substrate preincubated for 30 mins followed by substrate addition measured after 45 to 60 mins. The arrangement: species or system Homo sapiens.
Assay [6] is described as follows: Inhibition of PI3Kdelta (1 to 1044)/6xHis-tagged p85 (1 to 724) (unknown origin) using diC8-PIP2 as substrate preincubated for 30 mins followed by substrate addition measured after 45 to 60 mins. The arrangement: species or system Homo sapiens.
A short description of assay [7]: Inhibition of PI3Kbeta (1 to 1070)/6xHis-tagged p85 (1 to 724) (unknown origin) using diC8-PIP2 as substrate preincubated for 30 mins followed by substrate addition measured after 45 to 60 mins. Further details: species or system Homo sapiens.
Assay [8] relates to Hepatitis C virus. Description: Antiviral activity against Hepatitis C virus genotype 1a expressed in ET cells after 48 hrs by luciferase reporter gene assay. The class given is functional, organism-based, Hepacivirus hominis, subtype 1a. To be noted: et.

SMILES strings stand for the structures.

Chain of Phosphatidylinositol 4-kinase alpha (P42356 whole entry): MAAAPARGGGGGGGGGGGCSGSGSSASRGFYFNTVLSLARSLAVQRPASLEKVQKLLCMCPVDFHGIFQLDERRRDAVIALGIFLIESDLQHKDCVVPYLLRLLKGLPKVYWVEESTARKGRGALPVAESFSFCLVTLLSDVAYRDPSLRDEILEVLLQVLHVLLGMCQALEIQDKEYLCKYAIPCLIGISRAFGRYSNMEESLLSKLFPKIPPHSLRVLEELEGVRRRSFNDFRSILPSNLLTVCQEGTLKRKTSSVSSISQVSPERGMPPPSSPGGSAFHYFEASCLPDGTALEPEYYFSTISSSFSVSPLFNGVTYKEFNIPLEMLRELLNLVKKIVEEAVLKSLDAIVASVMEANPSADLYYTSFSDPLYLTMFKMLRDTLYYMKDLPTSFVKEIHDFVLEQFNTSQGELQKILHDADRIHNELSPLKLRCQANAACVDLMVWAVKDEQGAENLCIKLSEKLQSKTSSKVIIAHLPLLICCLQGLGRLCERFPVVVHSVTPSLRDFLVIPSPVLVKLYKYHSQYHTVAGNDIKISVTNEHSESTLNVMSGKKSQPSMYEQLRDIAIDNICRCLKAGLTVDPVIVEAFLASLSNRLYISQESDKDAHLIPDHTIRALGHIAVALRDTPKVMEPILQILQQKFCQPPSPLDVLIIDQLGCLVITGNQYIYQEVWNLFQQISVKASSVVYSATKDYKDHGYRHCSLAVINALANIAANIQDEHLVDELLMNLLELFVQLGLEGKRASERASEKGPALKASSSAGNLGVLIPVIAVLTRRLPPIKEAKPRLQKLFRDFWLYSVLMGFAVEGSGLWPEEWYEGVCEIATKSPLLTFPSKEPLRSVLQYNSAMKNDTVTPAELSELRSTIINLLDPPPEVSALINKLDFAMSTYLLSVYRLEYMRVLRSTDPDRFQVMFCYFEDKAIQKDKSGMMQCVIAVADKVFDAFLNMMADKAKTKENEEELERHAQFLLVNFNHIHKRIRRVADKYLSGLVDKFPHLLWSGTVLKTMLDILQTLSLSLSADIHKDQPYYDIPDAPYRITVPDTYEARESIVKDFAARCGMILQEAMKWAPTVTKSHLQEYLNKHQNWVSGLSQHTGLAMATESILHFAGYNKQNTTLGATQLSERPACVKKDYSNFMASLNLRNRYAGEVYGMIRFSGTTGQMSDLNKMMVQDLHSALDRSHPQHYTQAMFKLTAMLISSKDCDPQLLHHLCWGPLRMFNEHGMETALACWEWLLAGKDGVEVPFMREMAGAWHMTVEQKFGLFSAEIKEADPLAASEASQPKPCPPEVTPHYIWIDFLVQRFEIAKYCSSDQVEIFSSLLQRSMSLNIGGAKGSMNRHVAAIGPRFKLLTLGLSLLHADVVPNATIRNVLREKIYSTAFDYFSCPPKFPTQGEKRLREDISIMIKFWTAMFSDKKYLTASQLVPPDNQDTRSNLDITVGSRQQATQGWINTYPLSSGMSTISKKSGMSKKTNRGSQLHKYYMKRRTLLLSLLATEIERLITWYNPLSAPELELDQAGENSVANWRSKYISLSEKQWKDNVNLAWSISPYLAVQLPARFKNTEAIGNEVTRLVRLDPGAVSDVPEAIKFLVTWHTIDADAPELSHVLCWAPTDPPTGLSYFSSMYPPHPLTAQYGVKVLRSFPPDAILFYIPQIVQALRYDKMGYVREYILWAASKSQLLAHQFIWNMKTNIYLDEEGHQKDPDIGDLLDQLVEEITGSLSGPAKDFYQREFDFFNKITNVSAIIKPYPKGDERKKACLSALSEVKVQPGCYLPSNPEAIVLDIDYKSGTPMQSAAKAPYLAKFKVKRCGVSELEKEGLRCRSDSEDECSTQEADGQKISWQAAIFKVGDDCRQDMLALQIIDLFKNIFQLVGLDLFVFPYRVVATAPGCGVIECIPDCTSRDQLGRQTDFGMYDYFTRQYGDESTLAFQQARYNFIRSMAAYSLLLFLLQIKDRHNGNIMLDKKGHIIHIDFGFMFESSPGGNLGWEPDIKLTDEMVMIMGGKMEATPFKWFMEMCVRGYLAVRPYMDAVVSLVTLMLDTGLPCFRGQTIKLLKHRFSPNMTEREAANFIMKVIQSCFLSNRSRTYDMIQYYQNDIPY
Chain of Phosphatidylinositol 4,5-bisphosphate 3-kinase catalytic subunit gamma isoform (P48736 whole entry, canonical isoform): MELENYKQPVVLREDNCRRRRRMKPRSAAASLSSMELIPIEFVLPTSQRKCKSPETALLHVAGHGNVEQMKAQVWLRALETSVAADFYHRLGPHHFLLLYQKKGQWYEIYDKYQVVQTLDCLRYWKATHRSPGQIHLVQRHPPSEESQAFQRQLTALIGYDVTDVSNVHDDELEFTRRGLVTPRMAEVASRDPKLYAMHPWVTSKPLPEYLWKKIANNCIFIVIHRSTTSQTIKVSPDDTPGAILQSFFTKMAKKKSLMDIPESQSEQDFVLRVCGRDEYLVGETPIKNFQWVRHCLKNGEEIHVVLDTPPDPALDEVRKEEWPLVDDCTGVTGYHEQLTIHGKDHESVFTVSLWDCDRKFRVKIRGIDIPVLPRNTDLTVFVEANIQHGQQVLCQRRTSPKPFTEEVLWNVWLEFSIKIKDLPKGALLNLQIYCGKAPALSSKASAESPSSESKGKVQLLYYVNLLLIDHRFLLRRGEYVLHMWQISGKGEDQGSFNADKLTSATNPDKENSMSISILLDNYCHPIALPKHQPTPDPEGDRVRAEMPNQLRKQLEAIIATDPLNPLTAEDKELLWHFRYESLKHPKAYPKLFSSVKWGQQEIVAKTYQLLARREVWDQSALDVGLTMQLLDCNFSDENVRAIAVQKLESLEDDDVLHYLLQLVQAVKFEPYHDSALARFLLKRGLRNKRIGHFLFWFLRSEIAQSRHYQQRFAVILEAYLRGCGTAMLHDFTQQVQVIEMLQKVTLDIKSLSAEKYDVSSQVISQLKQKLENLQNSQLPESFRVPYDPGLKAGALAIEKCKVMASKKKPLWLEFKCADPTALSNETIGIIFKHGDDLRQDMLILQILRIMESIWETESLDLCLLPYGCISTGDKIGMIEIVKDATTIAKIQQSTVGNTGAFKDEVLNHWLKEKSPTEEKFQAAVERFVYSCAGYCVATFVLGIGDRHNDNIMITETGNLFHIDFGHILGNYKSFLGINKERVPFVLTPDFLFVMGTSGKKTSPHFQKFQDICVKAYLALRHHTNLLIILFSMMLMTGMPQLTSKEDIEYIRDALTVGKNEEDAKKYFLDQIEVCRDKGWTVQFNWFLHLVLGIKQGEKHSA

What is called IC50 is the concentration that inhibits the measured activity by half. Low readings indicate greater potency in that assay, high ones weaker potency in that assay. In general, pIC50 refers to −log10 of the IC50, conventionally taken in molar units. High values mean a low IC50, low ones a high IC50. `COc1ncc(-c2ccc3nc(N)n(-c4ccccc4)c(=O)c3c2)cc1NS(=O)(=O)c1cccnc1`: the IC50 is 0.000316 µM in assay [1], 0.001 µM in assay [2] and 0.00631 µM in assay [4]. Moreover, the negative-log IC50 (pIC50) in assay [3] worked out at 7.4; in assay [5], 8.4; in assay [6], 8.5; in assay [7] it was 7.

As to `COc1ncc(-c2ccc3nc(N)n(-c4ccccc4C)c(=O)c3c2)cc1S(=O)(=O)Nc1ccc(F)cc1F`, the 50% inhibitory concentration (IC50) in assay [1] was 0.01 µM; in assay [2] it was 0.00251 µM; in assay [4] it was 0.316 µM. The negative-log IC50 (pIC50) in assay [3] was 6.1; in assay [5] it was 6.5; in assay [6] it was 6.7; in assay [7], 5.7.

On to `CCn1c(N)nc2ccc(-c3cnc(OC)c(S(=O)(=O)Nc4ccc(F)cc4F)c3)cc2c1=O`, for which the concentration for half-maximal inhibition (IC50) in assay [1] is 0.0398 µM; in assay [2], 0.02 µM; in assay [4], 0.158 µM. In addition, the negative-log IC50 (pIC50) in assay [3] stood at 6; in assay [5], 6.9; in assay [6], 6.8; in assay [7], 6.4.

On to `COc1ncc(-c2cnc3nc(N)c(-c4ccccc4)cc3c2)cc1NS(=O)(=O)c1ccc(F)cc1F`, for which the half-maximal inhibitory concentration (IC50) was 0.631 µM in assay [1], 0.126 µM in assay [2] and 6.31 µM in assay [4]. For the same compound, the negative logarithm of the IC50 (pIC50) is reported as 5.4 in assay [3], 5.3 in assay [5], 5.7 in assay [6] and 6 in assay [7].

In the case of `COc1ncc(-c2ccc3ncnc(N4CCOCC4)c3c2)cc1NS(=O)(=O)c1ccc(F)cc1F`, the IC50 in assay [1] is 0.00158 µM; in assay [4] it was 0.00251 µM. For the same compound, the negative-log IC50 (pIC50) in assay [3] stood at 7.7; in assay [5] it was 8.9; in assay [6], 8.9; in assay [7], 8.7.

Turning to `COc1ncc(-c2ccc3nc(N)n(-c4ccccc4C(F)(F)F)c(=O)c3c2)cc1S(=O)(=O)Nc1ccc(F)cc1F`, the values for the IC50 in assay [1] and in assay [4] were 0.0158 µM and 3.16 µM, respectively. The pIC50 was 7.7 in assay [8]; 8.5 in assay [2] (et); 5.8 in assay [3]; 5.5 in assay [6]; 5 in assay [7].

Turning to `COc1ncc(-c2ccc3nc(N)c(-c4ccccc4)cc3c2)cc1NS(=O)(=O)c1ccc(F)cc1F`, the IC50 is 0.1 µM in assay [1], 0.01 µM in assay [2] and 0.0631 µM in assay [4]. Moreover, the negative logarithm of the IC50 (pIC50) in assay [3] is 5.8; in assay [5], 6.5; in assay [6], 6.9; in assay [7], 5.9.

Regarding `COc1ncc(-c2ccc3nc(N)n(-c4ccccc4)c(=O)c3c2)cc1N(C)S(=O)(=O)c1ccc(F)cc1F`, the IC50 is 3.98 µM in assay [1], > 2 µM in assay [2] and 3.98 µM in assay [4]. Besides, the pIC50 was 5 in assay [3], 5.5 in assay [5], 4.8 in assay [6] and 4.5 in assay [7].

As to `COc1ncc(-c2ccc3nc(N)n(-c4ccccc4)c(=O)c3c2)cc1NS(=O)(=O)c1ccccc1`, the IC50 is 0.00251 µM in assay [1] and 0.000501 µM in assay [2]. Also, the negative-log IC50 (pIC50) came to 6.7 in assay [3], 7.3 in assay [5], 7.7 in assay [6] and 6.3 in assay [7].

With `COc1ncc(-c2cc3cc(-c4ccccc4)c(N)nc3cn2)cc1NS(=O)(=O)c1ccc(F)cc1F`, the half-maximal inhibitory concentration (IC50) was 0.2 µM in assay [1], 0.158 µM in assay [2] and 1.26 µM in assay [4]. For the same compound, the negative logarithm of the IC50 (pIC50) in assay [3] was 5; in assay [5], 5.7; in assay [6] it was 6.2; in assay [7] it was 5.8.

For the compound `Nc1ncc(-c2ccc3nc(N)n(-c4ccccc4)c(=O)c3c2)cc1NS(=O)(=O)c1ccc(F)cc1F`, the figures for the IC50 in assay [1] and in assay [2] were 0.000794 µM and 0.0158 µM, respectively. For the same compound, the negative logarithm of the IC50 (pIC50) in assay [3] worked out at 7.5; in assay [5] it was 6.7; in assay [6], 6.4; in assay [7], 5.3.

As to `COc1ncc(-c2ccc3nc(N)n(-c4ccccc4)c(=O)c3c2)cc1NS(=O)(=O)c1cccc(C)c1`, the IC50 was 0.00398 µM in assay [1], 0.00126 µM in assay [2] and 0.0501 µM in assay [4]. Also, the pIC50 in assay [3] was 6.4; in assay [5] it was 7.1; in assay [6], 7.3; in assay [7], 6.3.

Regarding `COc1ncc(-c2ccc3nc(N)n(-c4ccccc4)c(=O)c3c2)cc1NS(=O)(=O)c1ccc(C)cc1`, the IC50 in assay [1] was 0.0158 µM; in assay [2] it was 0.00316 µM. For the same compound, the pIC50 in assay [3] amounted to 6.2; in assay [5], 7.3; in assay [6], 8; in assay [7] it was 5.6.

For `COc1ncc(-c2ccc3nc(N)n(-c4ccccc4)c(=O)c3c2)cc1NS(=O)(=O)c1ccc(C#N)cc1`, the IC50 in assay [1] was 0.001 µM; in assay [2], 0.000631 µM; in assay [4], 0.0501 µM. Besides, the pIC50 is given as 7.5 in assay [3], 6.6 in assay [5], 7.6 in assay [6] and 6.3 in assay [7].

For `COc1ncc(-c2ccc3nc(N)c(-c4ccccc4)cc3n2)cc1NS(=O)(=O)c1ccc(F)cc1F`, the IC50 in assay [1] was 7.94 µM; in assay [2] it was > 5.01 µM; in assay [4], 25.1 µM. Also, the negative-log IC50 (pIC50) in assay [3] is listed as 5; in assay [5], 4.2; in assay [6], 4.9; in assay [7], 4.2.

For the compound `COc1ncc(-c2ccc3nc(N)n(-c4cccc(C(F)(F)F)c4)c(=O)c3c2)cc1S(=O)(=O)Nc1ccc(F)cc1F`, the half-inhibitory concentration (IC50) was 0.0501 µM in assay [1], 0.0794 µM in assay [2] and 1.58 µM in assay [4]. In addition, the pIC50 in assay [3] is listed as 5.1; in assay [5] it was 6; in assay [6] it was 6; in assay [7], 5.

Consider `COc1ncc(-c2ccc3nc(N)n(C4CCOCC4)c(=O)c3c2)cc1S(=O)(=O)Nc1ccc(F)cc1F`, for which the IC50 in assay [1] is 0.01 µM; in assay [2], 0.00398 µM; in assay [4], 0.501 µM. The negative-log IC50 (pIC50) in assay [3] came to 5.9; in assay [5], 6.6; in assay [6] it was 6.6; in assay [7] it was 5.4.

Regarding `COc1ncc(-c2ccc3nc(N)n(-c4ccccc4)c(=O)c3c2)cc1NS(=O)(=O)C(C)C`, the results for the IC50 in assay [1], in assay [2] and in assay [4] were 0.126 µM, 0.0316 µM and 0.501 µM, respectively. In addition, the negative-log IC50 (pIC50) in assay [3] is 5.9; in assay [5], 6.4; in assay [6], 6.7; in assay [7], 5.3.

As to `COc1ncc(-c2ccc3nc(N)n(-c4ccccc4)c(=O)c3c2)cc1S(=O)(=O)Nc1ccc(F)cc1F`, the concentration for half-maximal inhibition (IC50) was 0.00631 µM in assay [1], 0.00501 µM in assay [2] and 1.26 µM in assay [4]. For the same compound, the negative logarithm of the IC50 (pIC50) in assay [3] turned out to be 5.5; in assay [5] it was 6; in assay [6], 6.3; in assay [7], 4.9.

As to `COc1ncc(-c2ccc3nc(N)n(-c4ccccc4)c(=O)c3c2)cc1NS(C)(=O)=O`, the IC50 was 0.02 µM in assay [1], 0.02 µM in assay [2] and 0.794 µM in assay [4]. For the same compound, the negative-log IC50 (pIC50) turned out to be 6.1 in assay [3], 6.4 in assay [5], 6.6 in assay [6] and 5.3 in assay [7].

Consider `COc1ccc(-c2ccc3nc(N)n(-c4ccccc4)c(=O)c3c2)cc1NS(=O)(=O)c1ccc(F)cc1F`, for which the half-inhibitory concentration (IC50) in assay [1] is 0.316 µM; in assay [2], 0.0316 µM; in assay [4], 0.316 µM. Moreover, the pIC50 in assay [3] was determined as 6.8; in assay [5] it was 5.8; in assay [6], 5.4; in assay [7], 4.

Regarding `COc1ncc(-c2ccc3nc(N)n(-c4ccccc4)c(=O)c3c2)cc1NS(=O)(=O)c1ccccc1C`, the IC50 is 0.001 µM in assay [1], 0.000398 µM in assay [2] and 0.0398 µM in assay [4]. The pIC50 is recorded as 6.8 in assay [3], 7.2 in assay [5], 7.6 in assay [6] and 6.4 in assay [7].

As to `COc1ncc(-c2ccc3nc(N)c(-c4ccccc4)nc3c2)cc1NS(=O)(=O)c1ccc(F)cc1F`, the values for the IC50 in assay [1], in assay [2] and in assay [4] were 0.00501 µM, 0.0158 µM and 0.00794 µM, respectively. Also, the pIC50 worked out at 6.9 in assay [3], 7.1 in assay [5], 7.8 in assay [6] and 6.7 in assay [7].

For `COc1ncc(-c2ccc3nc(N)n(-c4ccccc4C(C)C)c(=O)c3c2)cc1S(=O)(=O)Nc1ccc(F)cc1F`, the IC50 in assay [1] was 0.0316 µM; in assay [2], 0.00631 µM; in assay [4], 1 µM. Moreover, the pIC50 in assay [3] was found to be 6; in assay [5], 5.8; in assay [6] it was 5.6; in assay [7], 4.8.

As for `COc1ncc(-c2ccc3nc(N)n(-c4ccc(C(F)(F)F)cc4)c(=O)c3c2)cc1S(=O)(=O)Nc1ccc(F)cc1F`, the figures for the IC50 in assay [1], in assay [2] and in assay [4] were 0.0501 µM, 0.01 µM and 0.398 µM, respectively. Besides, the pIC50 in assay [3] stood at 5; in assay [5], 6.1; in assay [6], 6.4; in assay [7], 4.6.

The values are drawn from ChEMBL document CHEMBL3120088, “Discovery of selective small molecule type III phosphatidylinositol 4-kinase alpha (PI4KIIIα) inhibitors as anti hepatitis C (HCV) agents” (J Med Chem, 2014).
